Test results published in ChEMBL document CHEMBL1201862, “PubChem BioAssay data set” (2004).
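Grown in 96-well plates, cells were treated for 48 hours with each compound at five concentrations. Insufficient inhibition: endpoint recorded as highest concentration tested. GI50 is the concentration that inhibits growth by half.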 Activity calls are given as the source filed them. No stated cut-off is given here; in the data, active = GI50 up to about 1.1 µM and inactive = higher.

Tests used:
Test in all cases: NCI tumour cell line growth inhibition, 48 h
[1] = system: DMS-114
[2] = system: HOP-18
[3] = system: KM-20L2
[4] = system: LXFL 529
[5] = system: RXF 631
[6] = system: SNB-78
[7] = system: XF498

Measured: GI50

COC(=O)c1nc(-c2ccc(Cl)c(Cl)c2)nc2ccccc12
inactive: [1] 19.8 µM | [2] 2.01 µM | [3] > 100 µM | [4] > 27.1 µM | [5] > 67.6 µM | [6] 34.4 µM | [7] 6.81 µM
